Data on eight compounds can be found in PubChem BioAssay (NCI).

Common to all, as to experiment: NCI tumour cell line growth inhibition, 48 h
In assay [1] the test system is 786-0 renal.
Assay [2] deals with CAKI-1 renal.
Assay [3] has as its system COLO 205 colon.
Assay [4] deals with HOP-62 NSCLC.
The test system of assay [5] is MCF7 breast.
Assay [6] concerns NCI-H226 lung.
Assay [7] deals with NCI-H460 lung.
The test system of assay [8] is OVCAR-4 ovarian.
Assay [9] relates to SN12C renal.
The subject of assay [10] is UO-31 renal.

Several values for one entry are separate records, joined by “and”; a condition that tells them apart may be missing. Equal entries are not always repeated.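 In this assay, cells in 96-well plates receive the compound at five concentrations for 48 hours. Endpoints are linearly interpolated between the surrounding concentrations. At the GI50, growth is halved. TGI denotes the concentration required for complete inhibition of growth.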 Where only a bound is given, the exact number is not on record here.

`COc1cc2cc(Oc3ccc(NC(=O)Nc4ccc(F)c(C(F)(F)F)c4)cc3)c(C)nc2cc1OCCN1CCOCC1`: the GI50 in assay [1] is 1.73 µM; in assay [2], 2.06 µM; in [3] it was 1.87 µM; in assay [4] it was 3.99 µM; in [5], 1.46 µM; in assay [6] it was 2.55 µM. In addition, the GI50 is 1.96 µM in [7], 0.706 µM in assay [8], 2.65 µM in assay [9] and 1.71 µM in assay [10]. Also, the TGI in assay [1] is 3.44 µM; in [2], 9.55 µM; in assay [3], 4.28 µM; in assay [4], 20.5 µM; in [5], 3.48 µM; in assay [6], 13.2 µM. The TGI in assay [7] came out at 5.34 µM; in assay [8], 5.23 µM; in [9], 15.5 µM; in [10], 10.6 µM.
Take `CC[n+]1c(/C=C/c2ccc(N3CCCC3)cc2)cccc1/C=C/c1ccc(N2CCCC2)cc1`: the GI50 in assay [1] is 0.247 µM; in assay [2], 0.145 µM; in [3] it was 0.164 µM; in assay [4] it was 0.414 µM; in assay [5], 0.213 µM; in assay [6], 0.146 µM. Moreover, the GI50 in [7] was 0.293 µM; in assay [8], 0.0386 µM; in assay [9] it was 0.217 µM and 0.271 µM; in assay [10], 0.376 µM. The TGI in assay [1] came out at 1.2 µM; in assay [2], 1.36 µM; in [3] it was 0.341 µM; in assay [4], 1.46 µM; in assay [5], 1.35 µM; in assay [6] it was 1.49 µM. The TGI in [7] is 1.15 µM; in assay [8], 1.29 µM; in assay [9], 1.14 µM and 1.06 µM; in assay [10], 1.6 µM.
For the compound `Clc1ccc(Nc2ncnc3ccccc23)cc1`, the GI50 in [1] was 64.7 µM; in assay [2], 13.1 µM; in assay [3], 68.9 µM; in [4], > 100 µM; in [5], 30.4 µM; in [6], 57.2 µM. The GI50 was 43.7 µM in assay [7], > 100 µM in [8], 23 µM in assay [9] and 61 µM in assay [10]. Moreover, the TGI in [1] was > 100 µM; in assay [2], 61.1 µM; in assay [3], > 100 µM; in assay [4], > 100 µM; in assay [5] it was > 100 µM; in assay [6], > 100 µM. Further, the TGI in assay [7] was > 100 µM; in [8], > 100 µM; in assay [9] it was 73.1 µM; in assay [10], > 100 µM.
On to `O=C1NC(=N[C@@H]2C[C@H]2c2ccccc2)S/C1=C\c1ccc2ncccc2c1`, for which the GI50 in assay [1] is 2.27 µM; in assay [2], 1.03 µM; in [3], 0.813 µM; in assay [4], 1.67 µM; in [5] it was 0.795 µM; in [6] it was 3.18 µM. Besides, the GI50 was 1.32 µM in assay [7], 0.854 µM in assay [8], 1.68 µM in assay [9] and 2.06 µM in [10]. Moreover, the TGI in assay [1] came out at 6.01 µM; in assay [2] it was 6.46 µM; in assay [3] it was 2.35 µM; in assay [4], 6.38 µM; in assay [5], 4.95 µM; in assay [6] it was 10.2 µM. The TGI in assay [7] was 6.79 µM; in assay [8] it was 6.71 µM; in [9], > 25 µM; in [10], 6.78 µM.
In the case of `COc1ccc(-c2nc(Nc3ccc(F)cc3)nc(Nc3ccc4c(c3)nc(C)n4Cc3ccccc3)n2)cc1`, the GI50 in [1] is 2.68 µM; in assay [3] it was 2.28 µM; in [4] it was 8.47 µM; in assay [5], 3.14 µM; in [6] it was 5.34 µM; in [7], 3.35 µM. For the same compound, the GI50 is 1.59 µM in assay [8], 6.18 µM in assay [9] and 3.53 µM in assay [10]. Also, the TGI was 11.2 µM in [1]; 5.95 µM in [3]; > 100 µM in [4]; > 100 µM in assay [5]; > 100 µM in [6]; 20.9 µM in assay [7]. For the same compound, the TGI in assay [8], in assay [9] and in assay [10] was > 100 µM in each case.
On to `CCOC(=O)c1cc2c(OC)cc(OC)cc2oc1=O`, for which the TGI in assay [1], in assay [2], in assay [3], in assay [4], in [5] and in [6] was > 100 µM in each case. Also, the TGI in assay [7], in [8] and in [9] was > 100 µM in each case.
Consider `Cc1ccc([I+]c2ccc(C)cc2)cc1`, for which the GI50 in [1] is 28.8 µM; in assay [2] it was 4.55 µM; in assay [3], 6.93 µM; in [5], 4.01 µM; in assay [6], 17.8 µM; in assay [7], 3.48 µM. Further, the GI50 was 7.75 µM in assay [8], 18.6 µM in assay [9] and 21.3 µM in [10]. The TGI in assay [1] is > 100 µM; in assay [2], 71.4 µM; in [3], 95.2 µM; in [5], > 100 µM; in [6], > 100 µM; in assay [7], 30.4 µM. Also, the TGI in [8], in assay [9] and in [10] was > 100 µM throughout.
For `COC(=O)CC12CC(NC(=O)c3csc([C@@H](C[C@H](C(C)C)N(C)C(=O)[C@@H](NC(=O)[C@H]4CCCCN4C)C(C)C)OC(C)=O)n3)(C1)C2`, the GI50 was 0.00606 µM and 0.014 µM in [1]; 0.0027 µM and 0.00684 µM in assay [3]; 0.00498 µM and 0.00838 µM in [4]; 0.00289 µM and 0.00405 µM in assay [5]; 0.00492 µM and 0.0217 µM in assay [6]; 0.00322 µM and 0.0116 µM in assay [7]. The GI50 in [8] was 0.455 µM and 0.326 µM; in assay [9], 0.00446 µM and 0.0202 µM. Besides, the TGI is > 33.3 µM in assay [1]; 0.00961 µM and 0.0401 µM in assay [3]; > 33.3 µM in [4]; > 33.3 µM in assay [5]; > 33.3 µM in [7]; > 33.3 µM in assay [8]. Also, the TGI in [9] and in assay [10] was > 33.3 µM in each case.
